# Experimental data taken from US11679107B2 (Eisai R&D Management Co., Ltd., priority 2018, dated 2023).
# Like-named read-outs stand apart in the source and are kept apart here.
# Columns and labels:
# SF3b complexes = target: T1, SF3b complexes (Homo sapiens, UniProt O75533+Q7RTV0); assay: Scintillation proximity assay (SPA) with [3H]-labelled pladienolide probe; format: binding; settings: SF3B1 (WT); geometric mean; read-out: SPA-ATS GMean IC50 (nM) SF3B1 (WT)
# T1 construct: endogenous in cells; host or cells: Nuclear extracts; A HeLa S3 extract preparation is described for the in vitro splicing assay
# Method in brief: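 SF3b complexes captured from nuclear extracts on anti-SF3B1 antibody SPA beads; test compounds pre-incubated 30 min before 2.5 nM [3H]-pladienolide probe added, then 30 min incubation. Bound probe read by scintillation; values from non-linear regression of concentration–response curves.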
# [1] = test system: Ad2 variant pre-mRNAs spliced in HeLa S3 nuclear extracts; assay: In vitro splicing assay (IVS), RT-qPCR of spliced product; format: biochemical; settings: for IC50: geometric mean; for Ratio Ad2.1/2.2: ratio of IVS IC50 Ad2.1 to Ad2.2
# Method in brief: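 Ad2 variant pre-mRNA (2 ng) with FTZΔi control RNA in HeLa S3 nuclear extract (8 μg) was pre-incubated with compound or DMSO for 15 min at 30 °C. Splicing ran 90 min at 30 °C after adding 0.5 mM ATP, creatine phosphate and MgCl2. Spliced product was quantified by TaqMan RT-qPCR, normalized to DMSO, and curve-fitted.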
# [2] = test system: NCI-H1568 cells (high MCL1); assay: Cell proliferation and viability, CellTiter-Glo, 72 hours; format: cell-based; settings: for GI50: geometric mean
# Method in brief: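 Cells grown in RPMI-1640 with 10% FBS (Panc 05.04 with added insulin, 15% FBS total) were exposed to an 11-point half-log dilution, typically 10 μM–100 pM, at 0.1% DMSO for 72 h at 37 °C. ATP content was read by CellTiter-Glo luminescence. Percent inhibition was set against a time-zero plate and DMSO vehicle wells, on a −100% (cidal) to 100% (uninhibited growth) scale.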
# [3] = Ad2.1 pre-mRNA substrate, read-out: qPCR-IVS-ATS GMean IC50 (nM) Ad2.1
# [4] = Ad2.2 pre-mRNA substrate, read-out: qPCR-IVS-ATS GMean IC50 (nM) Ad2.2
# [5] = 72 h, NCIH1568.1, -100% = cidal, 0% = static, 100% = uninhibited growth
# [6] = NCI-H1568, read-out: CTGlo-ATS GMean GI50 (nM) 72 h NCIH1568.1, 72 h, NCIH1568.1
# [7] = NCI-H1568, 72 h, read-out: CTGlo-ATS GMean GI50 (nM) 72 h NCIH1568.1, NCIH1568.1 cells, 72 h
# [8] = NCIH1568.1 cells, 72 h, −100% cidal, 0% static, 100% maximal growth
# [9] = NCI-H1568, read-out: CTGlo-ATS GMean GI50 (nM) 72 h NCIH1568.1, NCIH1568.1 cells, 72 h
# [10] = NCI-H1568, 72 h, read-out: CTGlo-ATS GMean GI50 (nM) 72 h NCIH1568.1, 72 h, NCIH1568.1
Structure (SMILES),IC50 (SF3b complexes) [nM],"IC50 [1, 3] [nM]","IC50 [1, 4] [nM]",Ratio Ad2.1/2.2 [1],"CTGlo-ATS Mean MinResponse % 72 h NCIH1568.1 [2, 5] [%]","GI50 [2, 6] [nM]","GI50 [2, 7] [nM]","CTGlo-ATS Mean MinResponse % 72 h NCIH1568.1 [2, 8] [%]","GI50 [2, 9] [nM]","GI50 [2, 10] [nM]"
"C/C(=C\c1cc(F)cc(N2CCN(C(=O)Cn3cccn3)CC2)c1)[C@H]1OC(=O)C[C@H](O)CC[C@H](C)[C@@H](OC(=O)N2CCOCC2)/C=C/[C@@H]1C [Compound 223, [(2S,3S,4E,6R,7S,10R)-2-[(E)-1-[3-fluoro-5-[4-(2-pyrazol-1-ylacetyl)piperazin-1-yl]phenyl]prop-1-en-2-yl]-10-hydroxy-3,7-dimethyl-12-oxo-1-oxacyclododec-4-en-6-yl] morpholine-4-carboxylate]",15.9,93.9,6.96,13.488,−62.835,33.1,,,,
C/C(=C\c1cc(F)cc(N2CCN(C(=O)[C@@H]3CCOC3)CC2)c1)[C@H]1OC(=O)C[C@H](O)CC[C@H](C)[C@@H](OC(=O)N2CCN(C)CC2)/C=C/[C@@H]1C [Compound 152],3.83,16.2,8.39,,,,1.51,−80.509,,
C/C(=C\c1cc(F)cc(N(C)CC2CCN(S(C)(=O)=O)CC2)c1)[C@H]1OC(=O)C[C@H](O)CC[C@H](C)[C@@H](OC(=O)N2CCN(C)CC2)/C=C/[C@@H]1C [Compound 187],43.2,157,59.6,,,,,−54.197,65,
C/C(=C\c1cc(F)c2nnn(C3CCN(S(C)(=O)=O)CC3)c2c1)[C@H]1OC(=O)C[C@H](O)CC[C@H](C)[C@@H](OC(=O)N2CCN(C)CC2)/C=C/[C@@H]1C [Compound 157],2.27,8.47,7.49,,,,,−90.424,1.29,
C/C(=C\c1cc(F)cc(N2CCN(CCCO)CC2)c1)[C@H]1OC(=O)C[C@H](O)CC[C@H](C)[C@@H](OC(=O)N2CCN(C)CC2)/C=C/[C@@H]1C [Compound 136],8.11,8.64,14.5,,,,7.17,−90.722,,
C/C(=C\c1cc(F)cc(N2CCCNC2=O)c1)[C@H]1OC(=O)C[C@H](O)CC[C@H](C)[C@@H](OC(=O)N2CCN(C)CC2)/C=C/[C@@H]1C [Compound 79],2.14,18,12.3,,,,4.01,−72.802,,
"C/C(=C\c1cc(F)cc(N2CCN(C(=O)Cn3cccn3)CC2)c1)[C@H]1OC(=O)C[C@H](O)CC[C@H](C)[C@@H](OC(=O)NCCN(C)C)/C=C/[C@@H]1C [Compound 224, [(2S,3S,4E,6R,7S,10R)-2-[(E)-1-[3-fluoro-5-[4-(2-pyrazol-1-ylacetyl)piperazin-1-yl]phenyl]prop-1-en-2-yl]-10-hydroxy-3,7-dimethyl-12-oxo-1-oxacyclododec-4-en-6-yl] N-[2-(dimethylamino)ethyl]carbamate]",3.14,41.1,5.88,6.991,−61.875,,,,,16.4
"C/C(=C\c1cc(F)cc(N2CCN(C(=O)Cn3cccn3)CC2)c1)[C@H]1OC(=O)C[C@H](O)CC[C@H](C)[C@@H](OC(=O)N2CCN(C3CCCCCC3)CC2)/C=C/[C@@H]1C [Compound 236, [(2S,3S,4E,6R,7S,10R)-2-[(E)-1-[3-fluoro-5-[4-(2-pyrazol-1-ylacetyl)piperazin-1-yl]phenyl]prop-1-en-2-yl]-10-hydroxy-3,7-dimethyl-12-oxo-1-oxacyclododec-4-en-6-yl] 4-cycloheptylpiperazine-1-carboxylate]",84,49.9,56.2,0.889,−90.096,9.92,,,,
"C/C(=C\c1cc(F)cc(N2CCN(C(=O)Cn3cccn3)CC2)c1)[C@H]1OC(=O)C[C@H](O)CC[C@H](C)[C@@H](OC(=O)N2CC[C@@H](F)C2)/C=C/[C@@H]1C [Compound 231, [(2S,3S,4E,6R,7S,10R)-2-[(E)-1-[3-fluoro-5-[4-(2-pyrazol-1-ylacetyl)piperazin-1-yl]phenyl]prop-1-en-2-yl]-10-hydroxy-3,7-dimethyl-12-oxo-1-oxacyclododec-4-en-6-yl] (3R)-3-fluoropyrrolidine-1-carboxylate]",26,513,5.28,97.051,−59.209,22.7,,,,
C/C(=C\c1cc(F)cc(N(C)C2CCN(C(=O)c3ccccc3)CC2)c1)[C@H]1OC(=O)C[C@H](O)CC[C@H](C)[C@@H](OC(=O)N2CCN(C)CC2)/C=C/[C@@H]1C [Compound 180],42.3,29.9,24.6,,,,,−86.471,14.4,
C/C(=C\c1cc(F)c2nnn([C@H]3CC[C@H](O)CC3)c2c1)[C@H]1OC(=O)C[C@H](O)CC[C@H](C)[C@@H](OC(=O)N2CCN(C)CC2)/C=C/[C@@H]1C [Compound 147],7.3,9.57,7.43,,,,,−91.884,1.56,
"C/C(=C\c1cc(F)cc(N2CCN(C(=O)Cn3cccn3)CC2)c1)C1OC(=O)CC(O)CC[C@H](C)[C@@H](OC(=O)NC(C)CO)/C=C/C1C (stereo in doubt) [Compound 229, [(2R,3R,4E,6R,7S,10S)-2-[(E)-1-[3-fluoro-5-[4-(2-pyrazol-1-ylacetyl)piperazin-1-yl]phenyl]prop-1-en-2-yl]-10-hydroxy-3,7-dimethyl-12-oxo-1-oxacyclododec-4-en-6-yl] N-[(2S)-1-hydroxypropan-2-yl]carbamate]",17.1,329,12.2,27.000,−65.653,,,,,13.4
"C/C(=C\c1cc(F)cc(N2CCN(C(=O)Cn3cccn3)CC2)c1)[C@H]1OC(=O)C[C@H](O)CC[C@H](C)[C@@H](OC(=O)N2CCCN(C)CC2)/C=C/[C@@H]1C [Compound 225, [(2S,3S,4E,6R,7S,10R)-2-[(E)-1-[3-fluoro-5-[4-(2-pyrazol-1-ylacetyl)piperazin-1-yl]phenyl]prop-1-en-2-yl]-10-hydroxy-3,7-dimethyl-12-oxo-1-oxacyclododec-4-en-6-yl] 4-methyl-1,4-diazepane-1-carboxylate]",18.2,7.56,22.4,0.337,−73.768,,,,,11
C/C(=C\c1cc(F)c2cnn(C3CCN(S(C)(=O)=O)CC3)c2c1)[C@H]1OC(=O)C[C@H](O)CC[C@H](C)[C@@H](OC(=O)N2CCN(C)CC2)/C=C/[C@@H]1C [Compound 196],13.2,30,19.6,1.529,−90.418,1.83,,,,
C/C(=C\c1cc(F)cc(N(C)C2CCN(C(=O)c3cnco3)CC2)c1)[C@H]1OC(=O)C[C@H](O)CC[C@H](C)[C@@H](OC(=O)N2CCN(C)CC2)/C=C/[C@@H]1C [Compound 188],2.61,7.41,5.63,,,,,−79.922,2.77,
